Drawing on ChEMBL document CHEMBL1142055, “Quinolinium salt as a potent inhibitor of lymphocyte apoptosis” (Bioorg Med Chem Lett, 2005), this text covers EC50 for eleven compounds.

Bounds are passed on as bounds.

The species entered for the assay is Mus musculus. Briefly: Effective concentration by cytoprotection activity on glucocorticoid-induced apoptosis in murine thymocytes was determined in vitro. The class given is functional.

Turning to `Cc1ccc(-c2cn3c4c(sc3n2)CCCC4)cc1`, the response was half-maximal at 2.5 µM (EC50). On to `CO/N=C(/C[n+]1ccccc1)c1ccc(N2CCCC2)cc1`, for which it took 0.28 µM to reach a half-maximal effect (EC50).

For `Cc1ccc(C(=O)C[n+]2ccccc2)cc1`, the EC50 is > 10 µM. Compound `CO/N=C(/C[n+]1ccccc1)c1ccc(C)cc1` yielded an EC50 of 5.1 µM. On to `CO/N=C(/Cn1c(=O)ccc2ccccc21)c1ccc(N2CCCC2)cc1`, for which the EC50 was > 10 µM. As to `Cc1ccc(C(=O)C[n+]2cccc3ccccc32)cc1`, the EC50 was > 10 µM.

The compound `CO/N=C(/C[n+]1cccc2ccccc21)c1ccc(C)cc1` yielded an EC50 of 0.35 µM.

Consider `Cc1ccc(C(=O)Cn2c3c(sc2=N)CCCC3)cc1`, for which the midpoint of the response, the EC50, lay at 4.4 µM. On to `CO/N=C(/C[n+]1cccc2ccccc21)c1ccc(N2CCCC2)cc1`, for which a half-maximal effect (EC50) was put at 0.013 µM.

As to `Cc1ccc(C(=O)Cn2c(=O)ccc3ccccc32)cc1`, the half-maximal effective concentration (EC50) was > 10 µM. Take `CO/N=C(/Cn1c(=O)ccc2ccccc21)c1ccc(C)cc1`: the EC50 is > 10 µM.

For orientation: EC50 means the concentration at which the effect is half-maximal. Read a low EC50 as greater potency.
